# According to US20150105252A1, “SUBSTITUTED PYRAZOLES AS HERBICIDES” (E I DU PONT DE NEMOURS AND COMPANY, priority 2013, published 2015):
# Tests used:
# morningglory [1] = experiment: Test A postemergence; type: in vivo, Ipomoea spp.
# Outline: (§1)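 Growth medium: loam soil blended with sand. Preemergence treatment used a directed soil spray right after planting; postemergence treatment targeted seedlings at one to two leaves (2–10 cm height). Response was judged by eye relative to untreated plants about 10 days later on a 0–100 control scale.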
# corn [2] = experiment: Test A preemergence; type: in vivo, Zea mays; conditions: preemergence
# Outline: as §1
# barnyardgrass [3] = experiment: Test A postemergence; type: in vivo, Echinochloa crus-galli; conditions: Postemergence
# Outline: as §1
# morningglory [4] = experiment: Test A preemergence; type: in vivo, Ipomoea spp.; conditions: preemergence
# Outline: as §1
# barnyardgrass [5] = experiment: Test A preemergence; type: in vivo, Echinochloa crus-galli; conditions: preemergence
# Outline: as §1
# pigweed [6] = experiment: Test A postemergence; type: in vivo, Amaranthus retroflexus
# Outline: as §1
# pigweed [7] = experiment: Test A preemergence; type: in vivo, Amaranthus retroflexus; conditions: preemergence
# Outline: as §1
# rice = experiment: Test B flood; type: in vivo, Oryza sativa; conditions: 250 g ai/ha, visual rating on 0 to 100 scale (0 no effect, 100 complete control), 13 to 15 days
# Procedure: (§2) Seeds selected from rice (Oryza sativa), sedge, umbrella (small-flower umbrella sedge Cyperus difformis), ducksalad (Heteranthera limosa), and barnyardgrass (Echinochloa crus-galli) were grown to the 2-leaf stage for testing. At time of treatment, test pots were flooded to 3 cm above the soil surface, treated by application of test compounds directly to the paddy water, and then maintained at that water depth for the duration of the test.
# (§3) Treated plants and controls were maintained in a greenhouse for 13 to 15 days, after which time all species were compared to controls and visually evaluated. Plant response ratings, summarized in Table B, are based on a scale of 0 to 100 where 0 is no effect and 100 is complete control. A dash (-) response means no test result.
# crabgrass, large [8] = experiment: Test A preemergence; type: in vivo, Digitaria sanguinalis; conditions: preemergence
# Outline: as §1
# barnyardgrass [9] = experiment: Test B flood; type: in vivo, Echinochloa crus-galli; conditions: 250 g ai/ha, visual rating on 0 to 100 scale (0 no effect, 100 complete control), 13 to 15 days
# Procedure: as §2, §3
# velvetleaf [10] = experiment: Test A postemergence; type: in vivo, Abutilon theophrasti
# Outline: as §1
# wheat [11] = experiment: Test A postemergence; type: in vivo, Triticum aestivum
# Outline: as §1
# foxtail, giant [12] = experiment: Test A preemergence; type: in vivo, Setaria faberii; conditions: preemergence
# Outline: as §1
# sedge, umbrella = experiment: Test B flood; type: in vivo, Cyperus difformis; conditions: 250 g ai/ha, visual rating on 0 to 100 scale (0 no effect, 100 complete control), 13 to 15 days
# Procedure: as §2, §3
# velvetleaf [13] = experiment: Test A preemergence; type: in vivo, Abutilon theophrasti; conditions: preemergence
# Outline: as §1
# crabgrass, large [14] = experiment: Test A postemergence; type: in vivo, Digitaria sanguinalis
# Outline: as §1
# foxtail, giant [15] = experiment: Test A postemergence; type: in vivo, Setaria faberii
# Outline: as §1
# corn [16] = experiment: Test A postemergence; type: in vivo, Zea mays
# Outline: as §1
# ducksalad = experiment: Test B flood; type: in vivo, Heteranthera limosa; conditions: 250 g ai/ha, visual rating on 0 to 100 scale (0 no effect, 100 complete control), 13 to 15 days
# Procedure: as §2, §3
# wheat [17] = experiment: Test A preemergence; type: in vivo, Triticum aestivum; conditions: preemergence
# Outline: as §1
# [18] = Postemergence, 500 g ai/ha, visual rating after approx. 10 days, 0 to 100 scale (0 no effect, 100 complete control)
# [19] = postemergence, 125 g ai/ha, about 10 days, visual rating on 0 to 100 scale (0 no effect, 100 complete control)
# [20] = 125 g ai/ha, visual injury, 0 to 100 scale, approx. 10 days
# [21] = 500 g ai/ha, visual injury after approx. 10 days, 0 to 100 scale (0 no effect, 100 complete control)
# [22] = 125 g ai/ha, 0 to 100 scale, 0 no effect, 100 complete control
# [23] = Postemergence, 125 g ai/ha, 0 to 100 scale, 0 no effect, 100 complete control
# [24] = Postemergence, 500 g ai/ha, 0 to 100 scale (0 no effect, 100 complete control)
# [25] = 125 g ai/ha, visual injury approx. 10 days after treatment
smiles,measurement,setting,value
CCCc1cc(C(=O)NCC(F)(F)F)nn1Oc1ccnc(C(F)(F)F)c1 [Compound 92],Morningglory plant response rating,morningglory [1]; [18],40
same,Morningglory plant response rating,morningglory [1]; [19],0
same,Corn plant response rating,corn [2]; [20],0
same,Corn plant response rating,corn [2]; [21],40
same,Barnyardgrass plant response rating,barnyardgrass [3]; [22],0
same,Barnyardgrass plant response rating,"barnyardgrass [3]; 500 g ai/ha, visual rating after approx. 10 days, 0 to 100 scale (0 no effect, 100 complete control)",40
same,Morningglory plant response rating,morningglory [4]; [20],0
same,Morningglory plant response rating,morningglory [4]; [21],20
same,Barnyardgrass plant response rating,barnyardgrass [5]; [20],0
same,Barnyardgrass plant response rating,barnyardgrass [5]; [21],90
same,Pigweed plant response rating,pigweed [6]; [18],40
same,Pigweed plant response rating,pigweed [6]; [19],0
same,Pigweed plant response rating,pigweed [7]; [20],40
same,Pigweed plant response rating,pigweed [7]; [21],100
same,"Plant response rating, Rice",rice,0
same,"Crabgrass, Large plant response rating","crabgrass, large [8]; [20]",20
same,"Crabgrass, Large plant response rating","crabgrass, large [8]; [21]",100
same,"Plant response rating, Barnyardgrass",barnyardgrass [9],0
same,Velvetleaf plant response rating,velvetleaf [10]; [18],20
same,Velvetleaf plant response rating,velvetleaf [10]; [19],0
same,Wheat plant response rating,wheat [11]; [18],20
same,Wheat plant response rating,wheat [11]; [19],0
same,"Foxtail, Giant plant response rating","foxtail, giant [12]; [20]",20
same,"Foxtail, Giant plant response rating","foxtail, giant [12]; [21]",100
same,"Plant response rating, Sedge, Umbrella","sedge, umbrella",50
same,Velvetleaf plant response rating,velvetleaf [13]; [20],0
same,Velvetleaf plant response rating,velvetleaf [13]; [21],0
same,"Crabgrass, Large plant response rating","crabgrass, large [14]; [18]",30
same,"Crabgrass, Large plant response rating","crabgrass, large [14]; [19]",0
same,"Foxtail, Giant plant response rating","foxtail, giant [15]; [18]",50
same,"Foxtail, Giant plant response rating","foxtail, giant [15]; [19]",0
same,Corn plant response rating,corn [16]; [18],40
same,Corn plant response rating,corn [16]; [19],0
same,"Plant response rating, Ducksalad",ducksalad,50
same,Wheat plant response rating,wheat [17]; [20],0
same,Wheat plant response rating,wheat [17]; [21],20
CCCNC(=O)c1cc(COC)n(Cc2cc(C(F)(F)C(F)(F)F)nn2C)n1 [Compound 228],Morningglory plant response rating,morningglory [1]; [23],50
same,Morningglory plant response rating,morningglory [1]; [24],100
same,Corn plant response rating (0 to 100 scale),corn [2]; [25],0
same,Corn plant response rating,corn [2]; [21],30
same,Barnyardgrass plant response rating,barnyardgrass [3]; [22],0
same,Barnyardgrass plant response rating,"barnyardgrass [3]; 500 g ai/ha, 0 to 100 scale (0 no effect, 100 complete control)",50
same,Morningglory plant response rating (0 to 100 scale),morningglory [4]; [25],30
same,"Barnyardgrass plant response rating (0 to 100 scale, 0 is no effect, 100 is complete control)",barnyardgrass [5]; [25],10
same,Barnyardgrass plant response rating,barnyardgrass [5]; [21],90
same,Pigweed plant response rating,pigweed [6]; [23],30
same,Pigweed plant response rating,pigweed [6]; [24],80
same,Pigweed plant response rating (0 to 100 scale),pigweed [7]; [25],90
same,"Plant response rating, Rice",rice,0
same,"Crabgrass, Large plant response rating (0 to 100 scale)","crabgrass, large [8]; [25]",90
same,"Crabgrass, Large plant response rating","crabgrass, large [8]; [21]",100
same,"Plant response rating, Barnyardgrass",barnyardgrass [9],0
same,Velvetleaf plant response rating,velvetleaf [10]; [23],10
same,Velvetleaf plant response rating,velvetleaf [10]; [24],30
same,Wheat plant response rating,wheat [11]; [23],0
same,Wheat plant response rating,wheat [11]; [24],10
same,"Foxtail, Giant plant response rating (0 to 100 scale)","foxtail, giant [12]; [25]",30
same,"Foxtail, Giant plant response rating","foxtail, giant [12]; [21]",80
same,"Plant response rating, Sedge, Umbrella","sedge, umbrella",30
same,Velvetleaf plant response rating (0 to 100 scale),velvetleaf [13]; [25],0
same,"Crabgrass, Large plant response rating","crabgrass, large [14]; [23]",20
same,"Crabgrass, Large plant response rating","crabgrass, large [14]; [24]",60
same,"Foxtail, Giant plant response rating","foxtail, giant [15]; [23]",10
same,"Foxtail, Giant plant response rating","foxtail, giant [15]; [24]",60
same,Corn plant response rating,corn [16]; [23],10
same,Corn plant response rating,corn [16]; [24],50
same,"Plant response rating, Ducksalad",ducksalad,30
same,Wheat plant response rating (0 to 100 scale),wheat [17]; [25],0
